Each compound was assayed against T1, IRAK4 (Homo sapiens, UniProt Q9NWZ3) (assay: IRAK4 Degradation Assay, HiBiT Method). Details: 293T cells expressing HiBiT-tagged IRAK4, 6 hours.
T1 construct: 293Tcells expressing HiBiT-tagged IRAK4 were then added into 384-well plates
T1 sequence (Q9NWZ3 1-460): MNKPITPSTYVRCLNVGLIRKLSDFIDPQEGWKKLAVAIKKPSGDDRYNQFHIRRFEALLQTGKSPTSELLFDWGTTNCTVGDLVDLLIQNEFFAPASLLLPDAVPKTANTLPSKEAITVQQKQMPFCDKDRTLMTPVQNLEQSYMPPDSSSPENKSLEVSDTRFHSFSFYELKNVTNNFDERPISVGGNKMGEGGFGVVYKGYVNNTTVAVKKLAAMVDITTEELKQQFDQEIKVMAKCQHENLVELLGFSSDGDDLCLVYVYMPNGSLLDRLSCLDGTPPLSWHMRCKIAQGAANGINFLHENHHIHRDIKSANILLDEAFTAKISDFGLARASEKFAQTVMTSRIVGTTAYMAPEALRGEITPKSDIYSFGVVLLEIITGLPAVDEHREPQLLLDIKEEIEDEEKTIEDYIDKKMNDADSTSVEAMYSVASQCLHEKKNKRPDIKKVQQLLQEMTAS
Type: cell-based
Experimental: Assay 1. IRAK4 Degradation Assay, HiBiT Method
Selected compounds were tested in an IRAK4 degradation assay using the HiBiT Method.
Phenol red-free Dulbecco's modified Eagle medium (DMEM) and fetal bovine serum (FBS) were purchased from Gibco (Grand Island, NY, USA). The Nano-Glo® HiBiT Lytic Assay System was purchased from Promega (Madison, WI, USA). Cell culture flasks and 384-well microplates were acquired from VWR (Radnor, PA, USA). The 293Tcell line was engineered by knocking-in a HiBiT fusion tag into the C-terminal of the IRAK4 gene in 293T cells (Synthego, Redwood City, CA, USA).
IRAK4 degradation was measured via the quantification of luminescent signals using the Nano-Glo® HiBiT Lytic Assay kit. Test compounds were added to 384-well plates in duplicate using an 11-point half-log dilution series, with the highest dose set at […]. 293Tcells expressing HiBiT-tagged IRAK4 were then added into 384-well plates at a cell density of 10,000 cells per well. The plates were kept at 37° C. with 5% CO2 for 6 hours. Cells that were treated only with DMSO served as the negative control; wells that contained only assay media served as the background control. After the 6-hour incubation, Nano-Glo® HiBiT Lytic Assay reagents were added to the cells. Luminescence was acquired using an EnVision™ Multilabel Reader (PerkinElmer, Santa Clara, CA, USA).
`CC(C)Oc1cc2nc([C@H]3CC[C@H](CN4CCC(c5ccc6c(c5)n(C)c(=O)n6C5CCC(=O)NC5=O)CC4)CC3)cn2cc1C(=O)Nc1cccc(C(F)F)n1` (stereo partly drawn) [Example 19, N-[6-(difluoromethyl)-2-pyridyl]-2-[4-[[4-[1-(2,6-dioxo-3-piperidyl)-3-methyl-2-oxo-benzimidazol-5-yl]-1-piperidyl]methyl]cyclohexyl]-7-isopropoxy-imidazo[1,2-a]pyridine-6-carboxamide] gave a DC50 of less than 10 nM.
`CC(C)Oc1cc2nc([C@H]3CC[C@H](CN(C)C4CCN(c5ccc(NC6CCC(=O)NC6=O)cc5)CC4)CC3)cn2cc1C(=O)Nc1cccc(C(F)F)n1` (stereo partly drawn) [Example 20, N-[6-(difluoromethyl)-2-pyridyl]-2-[4-[[[1-[4-[(2,6-dioxo-3-piperidyl)amino]phenyl]-4-piperidyl]-methyl-amino]methyl]cyclohexyl]-7-isopropoxy-imidazo[1,2-a]pyridine-6-carboxamide] showed a DC50 of 10 to 100 nM.
`CC(C)Oc1cc2nc([C@H]3CC[C@H](CN(C)C4CCN(c5cccc6c5n(C)c(=O)n6C5CCC(=O)NC5=O)CC4)CC3)cn2cc1C(=O)Nc1cccc(C(F)F)n1` (stereo partly drawn) [Example 21, N-[6-(difluoromethyl)-2-pyridyl]-2-[4-[[[1-[1-(2,6-dioxo-3-piperidyl)-3-methyl-2-oxo-benzimidazol-4-yl]-4-piperidyl]-methyl-amino]methyl]cyclohexyl]-7-isopropoxy-imidazo[1,2-a]pyridine-6-carboxamide] was tested, and the DC50 was 10 to 100 nM.
`CC(C)Oc1cc2nc([C@H]3CC[C@H](CN4CCC(c5cccc(NC6CCC(=O)NC6=O)c5F)CC4)CC3)cn2cc1C(=O)Nc1cccc(C(F)F)n1` (stereo partly drawn) [Example 22, N-[6-(difluoromethyl)-2-pyridyl]-2-[4-[[4-[3-[(2,6-dioxo-3-piperidyl)amino]-2-fluoro-phenyl]-1-piperidyl]methyl]cyclohexyl]-7-isopropoxy-imidazo[1,2-a]pyridine-6-carboxamide] gave a DC50 of 10 to 100 nM.
For `CC(C)Oc1cc2nc([C@H]3CC[C@H](CN(C)C4CCN(c5cccc(NC6CCC(=O)NC6=O)c5)CC4)CC3)cn2cc1C(=O)Nc1cccc(C(F)F)n1` (stereo partly drawn) [Example 24, N-[6-(difluoromethyl)-2-pyridyl]-2-[4-[[[1-[3-[(2,6-dioxo-3-piperidyl)amino]phenyl]-4-piperidyl]-methyl-amino]methyl]cyclohexyl]-7-isopropoxy-imidazo[1,2-a]pyridine-6-carboxamide], the DC50 was 10 to 100 nM.
Work on `CC(C)Oc1cc2nc([C@H]3CC[C@H](CN4CCC(c5ccc(C6CCC(=O)NC6=O)cc5)C(F)(F)C4)CC3)cn2cc1C(=O)Nc1cccc(C(F)F)n1` (stereo partly drawn) [Example 25, N-[6-(difluoromethyl)-2-pyridyl]-2-[4-[[4-[4-(2,6-dioxo-3-piperidyl)phenyl]-3,3-difluoro-1-piperidyl]methyl]cyclohexyl]-7-isopropoxy-imidazo[1,2-a]pyridine-6-carboxamide] yielded a DC50 of 100 to 500 nM.
`CC(C)Oc1cc2nc([C@H]3CC[C@H](CN4CCC(c5cccc(NC6CCC(=O)NC6=O)c5)CC4)CC3)cn2cc1C(=O)Nc1cccc(C(F)F)n1` (stereo partly drawn) [Example 26, N-[6-(difluoromethyl)-2-pyridyl]-2-[4-[[4-[3-[(2,6-dioxo-3-piperidyl)amino]phenyl]-1-piperidyl]methyl]cyclohexyl]-7-isopropoxy-imidazo[1,2-a]pyridine-6-carboxamide] showed a DC50 of 100 to 500 nM.
For `CC(C)Oc1cc2nc([C@H]3CC[C@H](CN(C)C4CCN(c5ccc6c(c5)n(C)c(=O)n6C5CCC(=O)NC5=O)CC4)CC3)cn2cc1C(=O)Nc1cccc(C(F)F)n1` (stereo partly drawn) [Example 27, N-[6-(difluoromethyl)-2-pyridyl]-2-[4-[[[1-[1-(2,6-dioxo-3-piperidyl)-3-methyl-2-oxo-benzimidazol-5-yl]-4-piperidyl]-methyl-amino]methyl]cyclohexyl]-7-isopropoxy-imidazo[1,2-a]pyridine-6-carboxamide], the DC50 was 10 to 100 nM.
`CC(C)Oc1cc2nc([C@H]3CC[C@H](CN(C)C4CCN(c5cccc(C6CCC(=O)NC6=O)c5)CC4)CC3)cn2cc1C(=O)Nc1cccc(C(F)F)n1` (stereo partly drawn) [Example 28, N-[6-(difluoromethyl)-2-pyridyl]-2-[4-[[[1-[3-(2,6-dioxo-3-piperidyl)phenyl]-4-piperidyl]-methyl-amino]methyl]cyclohexyl]-7-isopropoxy-imidazo[1,2-a]pyridine-6-carboxamide] showed a DC50 of 10 to 100 nM.
`CC(C)Oc1cc2nc([C@H]3CC[C@H](CN4CCC(c5ccc6c(c5)n(C)c(=O)n6C5CCC(=O)NC5=O)C(F)(F)C4)CC3)cn2cc1C(=O)Nc1cccc(C(F)F)n1` (stereo partly drawn) [Example 29, N-[6-(difluoromethyl)-2-pyridyl]-2-[4-[[4-[1-(2,6-dioxo-3-piperidyl)-3-methyl-2-oxo-benzimidazol-5-yl]-3,3-difluoro-1-piperidyl]methyl]cyclohexyl]-7-isopropoxy-imidazo[1,2-a]pyridine-6-carboxamide] gave a DC50 of 10 to 100 nM.
Work on `CC(C)Oc1cc2nc([C@H]3CC[C@H](CN(C)C4CCN(c5ccc(C6CCC(=O)NC6=O)cc5)CC4)CC3)cn2cc1C(=O)Nc1cccc(C(F)F)n1` (stereo partly drawn) [Example 30, N-[6-(difluoromethyl)-2-pyridyl]-2-[4-[[[1-[4-(2,6-dioxo-3-piperidyl)phenyl]-4-piperidyl]-methyl-amino]methyl]cyclohexyl]-7-isopropoxy-imidazo[1,2-a]pyridine-6-carboxamide] yielded a DC50 of less than 10 nM.
`CC(C)Oc1cc2nc([C@H]3CC[C@H](CN(C)C4CCN(Cc5ccc(NC6CCC(=O)NC6=O)cc5)CC4)CC3)cn2cc1C(=O)Nc1cccc(C(F)F)n1` (stereo partly drawn) [Example 32, N-[6-(difluoromethyl)-2-pyridyl]-2-[4-[[[1-[[4-[(2,6-dioxo-3-piperidyl)amino]phenyl]methyl]-4-piperidyl]-methyl-amino]methyl]cyclohexyl]-7-isopropoxy-imidazo[1,2-a]pyridine-6-carboxamide] showed a DC50 of 100 to 500 nM.
`CC(C)Oc1cc2nc([C@H]3CC[C@H](CN4CCC(c5cc6c(cc5F)c(N5CCC(=O)NC5=O)nn6C)C(F)(F)C4)CC3)cn2cc1C(=O)Nc1cccc(C(F)F)n1` (stereo partly drawn) [Example 33, N-[6-(difluoromethyl)-2-pyridyl]-2-[4-[[4-[3-(2,4-dioxohexahydropyrimidin-1-yl)-5-fluoro-1-methyl-indazol-6-yl]-3,3-difluoro-1-piperidyl]methyl]cyclohexyl]-7-isopropoxy-imidazo[1,2-a]pyridine-6-carboxamide] showed a DC50 of 100 to 500 nM.
Compound `CC(C)Oc1cc2nc([C@H]3CC[C@H](CN(C)C4CCN(Cc5cccc(NC6CCC(=O)NC6=O)c5)CC4)CC3)cn2cc1C(=O)Nc1cccc(C(F)F)n1` (stereo partly drawn) [Example 34, N-[6-(difluoromethyl)-2-pyridyl]-2-[4-[[[1-[[3-[(2,6-dioxo-3-piperidyl)amino]phenyl]methyl]-4-piperidyl]-methyl-amino]methyl]cyclohexyl]-7-isopropoxy-imidazo[1,2-a]pyridine-6-carboxamide] has a DC50 of 100 to 500 nM.
Work on `CC(C)Oc1cc2nc([C@H]3CC[C@H](CN4CCC(c5ccc(NC6CCC(=O)NC6=O)cn5)CC4)CC3)cn2cc1C(=O)Nc1cccc(C(F)F)n1` (stereo partly drawn) [Example 35, N-[6-(difluoromethyl)-2-pyridyl]-2-[4-[[4-[5-[(2,6-dioxo-3-piperidyl)amino]-2-pyridyl]-1-piperidyl]methyl]cyclohexyl]-7-isopropoxy-imidazo[1,2-a]pyridine-6-carboxamide] yielded a DC50 of 10 to 100 nM.
